The record followed here is US20170144969A1, “ANT[…], METHOD FOR PRODUCTION AND USES THEREOF” (priority 2014, published 2017).

One data set concerns S. aureus (MTCC 737). Description: Minimum Inhibitory Concentration, micro-dilution broth. The class given is cell-based, Staphylococcus aureus. The conditions noted are these: 24 h, 37° C.
In data set [1] the test system is Enterococcus faecium (ATCC 19634). Described as above. The data set is classed as cell-based. The following applies: 24 h, 37° C.; read-out: Minimum Inhibitory Concentration E. faceium.
In the next data set the test system is E. coli (MTCC 443). The data set is described as above. The class given is cell-based. The following applies: 24 h, 37° C.
For another data set, the system named is MRSA (ATCC 33591). The data set is described as above. The following applies: 24 h, 37° C. The class given is cell-based, methicillin-resistant S. aureus.
Data set [2] deals with vancomycin resistant Enterococcus faecium (VRE) (ATCC 51559). Described as above. The class given is cell-based. The conditions noted are these: 24 h, 37° C.
Data set [3] concerns Klebsiella pneumoniae (ATCC 700603). The description is as above. The data set is classed as cell-based. The conditions noted are these: 24 h, 37° C.
Another data set relates to human Red Blood Cells. Put plainly: Haemolytic activity. The following applies: for HC50: human RBCs, 1 h at 37° C.; for hemolysis: at 1000 µM concentration.

With `CCCCCCCCCCCC(=O)N(CCCNC(=O)[C@H](C)N)CCCNC(=O)[C@H](C)N.O=C(O)C(F)(F)F.O=C(O)C(F)(F)F` [Compound 45, N,N-bis-[{3-(^LAla)amido}propyl]dodecanamide bis(trifluoroacetate)], the MIC in the data set with S. aureus (MTCC 737) turned out to be 95 µM; in data set [1], 73 µM; against E. coli (MTCC 443), 282 µM; in data set [2], 82 µM. Besides, the “Minimum Inhibitory Concentration MRSA” value with MRSA (ATCC 33591) is 133 µM. Also, the “Minimum Inhibitory Concentration K. pneumonie” value in data set [3] is over 365 µM. In addition, the HC50 in the data set with human Red Blood Cells (Table 6) is 562 µM.

For the molecule `CCCCCCCCCCCCCCCC(=O)N(CCCNC(=O)[C@@H](N)CC(C)C)CCCNC(=O)[C@@H](N)CC(C)C.O=C(O)C(F)(F)F.O=C(O)C(F)(F)F` [Compound 56, N,N-bis-[{3-(^LLeu)amido}propyl]hexadecanamide bis(trifluoroacetate)], the MIC with S. aureus (MTCC 737) is given as 3.8 µM; in data set [1], 3.4 µM; against E. coli (MTCC 443) it was 20 µM; in data set [2] it was 3.4 µM. Further, the “Minimum Inhibitory Concentration MRSA” value with MRSA (ATCC 33591) is 2.9 µM. The “Minimum Inhibitory Concentration K. pneumonie” value in data set [3] came to 280 µM. In the data set on human Red Blood Cells (Table 6), the HC50 was determined as 95 µM.

As to `CCCCCCCCCCCC(=O)N(CCCNC(=O)CN)CCCNC(=O)CN.O=C(O)C(F)(F)F.O=C(O)C(F)(F)F` [Compound 42, N,N-bis-[{3-(Gly)amido}propyl]dodecanamide bis(trifluoroacetate)], the MIC against S. aureus (MTCC 737) stood at 67 µM; in data set [1], 86 µM; against E. coli (MTCC 443), 340 µM; in data set [2] it was 112 µM. Moreover, in the data set with MRSA (ATCC 33591), the “Minimum Inhibitory Concentration MRSA” value is 61 µM. Moreover, in data set [3], the “Minimum Inhibitory Concentration K. pneumonie” value was over 340 µM. The molecule also yielded an HC50 in the data set on human Red Blood Cells (Table 6) of 400 µM.

Take `CCCCCCCCCCCCCCCC(=O)N(CCCNC(=O)[C@@H](N)C(C)C)CCCNC(=O)[C@@H](N)C(C)C.O=C(O)C(F)(F)F.O=C(O)C(F)(F)F` [Compound 50, N,N-bis-[{3-(^LVal)amido}propyl]hexadecanamide bis(trifluoroacetate)]: the MIC worked out at 2.7 µM against S. aureus (MTCC 737), 1.7 µM in data set [1], 10 µM against E. coli (MTCC 443) and 1.4 µM in data set [2]. Further, the “Minimum Inhibitory Concentration MRSA” value with MRSA (ATCC 33591) worked out at 1.9 µM. In data set [3], the “Minimum Inhibitory Concentration K. pneumonie” value was over 314 µM. The same molecule had an HC50 with human Red Blood Cells (Table 6) of 86 µM.

As for `CCCCCCCCCCCC(=O)N(CCCNC(=O)[C@@H]1CCCN1)CCCNC(=O)[C@@H]1CCCN1.O=C(O)C(F)(F)F.O=C(O)C(F)(F)F` [Compound 57, N,N-bis-[{3-(^LPro)amido}propyl]dodecanamide bis(trifluoroacetate)], the MIC turned out to be 60 µM with S. aureus (MTCC 737), 78 µM in data set [1], 90 µM against E. coli (MTCC 443) and 112 µM in data set [2]. The “Minimum Inhibitory Concentration MRSA” value with MRSA (ATCC 33591) came out at 130 µM. Further, the “Minimum Inhibitory Concentration K. pneumonie” value in data set [3] was over 340 µM. Also, in the data set with human Red Blood Cells (Table 6), the HC50 was found to be 918 µM.

`CCCCCCCCCCCCCCCC(=O)N(CCCNC(=O)[C@H](C)N)CCCNC(=O)[C@H](C)N.O=C(O)C(F)(F)F.O=C(O)C(F)(F)F` [Compound 47, N,N-bis-[{3-(^LAla)amido}propyl]hexadecanamide bis(trifluoroacetate)]: the MIC with S. aureus (MTCC 737) is on record as 5.6 µM; in data set [1], 3 µM; in the data set with E. coli (MTCC 443), 4 µM; in data set [2], 3 µM. The “Minimum Inhibitory Concentration MRSA” value with MRSA (ATCC 33591) turned out to be 6 µM. Also, the “Minimum Inhibitory Concentration K. pneumonie” value in data set [3] is 12 µM. In the data set on human Red Blood Cells (Table 6), the HC50 worked out at 68 µM.

Turning to `CCCCCCCCCCCCCC(=O)N(CCCNC(=O)[C@H](C)N)CCCNC(=O)[C@H](C)N.O=C(O)C(F)(F)F.O=C(O)C(F)(F)F` [Compound 46, N,N-bis-[{3-(^LAla)amido}propyl]tetradecanamide bis(trifluoroacetate)], the MIC in the data set with S. aureus (MTCC 737) is listed as 19 µM; in data set [1], 9 µM; against E. coli (MTCC 443), 17 µM; in data set [2], 7.6 µM. In addition, the “Minimum Inhibitory Concentration MRSA” value in the data set with MRSA (ATCC 33591) was 17 µM. In addition, in data set [3], the “Minimum Inhibitory Concentration K. pneumonie” value is over 360 µM. The molecule also registered an HC50 in the data set on human Red Blood Cells (Table 6) of 93 µM.

Turning to `CCCCCCCCCCCCCCCC(=O)N(CCCNC(=O)[C@@H](N)Cc1ccccc1)CCCNC(=O)[C@@H](N)Cc1ccccc1.O=C(O)C(F)(F)F.O=C(O)C(F)(F)F` [Compound 4, N,N-bis-[{3-(^LPhe)amino}propyl]hexadecanamide bis(trifluoroacetate)], the MIC is on record as 10 µM against S. aureus (MTCC 737), 8.5 µM in data set [1], 225 µM in the data set with E. coli (MTCC 443) and 3 µM in data set [2]. The “Minimum Inhibitory Concentration MRSA” value with MRSA (ATCC 33591) amounted to 5.2 µM. In addition, the “Minimum Inhibitory Concentration K. pneumonie” value in data set [3] was 70 µM. The molecule also returned an HC50 in the data set with human Red Blood Cells (Table 3) of 83.

Take `CCCCCCCCCCCCCC(=O)N(CCCNC(=O)[C@@H]1CCCN1)CCCNC(=O)[C@@H]1CCCN1.O=C(O)C(F)(F)F.O=C(O)C(F)(F)F` [Compound 58, N,N-bis-[{3-(^LPro)amido}propyl]tetradecanamide bis(trifluoroacetate)]: the MIC with S. aureus (MTCC 737) came out at 11 µM; in data set [1], 13 µM; in the data set with E. coli (MTCC 443) it was 12 µM; in data set [2] it was 18 µM. Further, the “Minimum Inhibitory Concentration MRSA” value with MRSA (ATCC 33591) turned out to be 15 µM. In addition, the “Minimum Inhibitory Concentration K. pneumonie” value in data set [3] turned out to be 135 µM. Further, the HC50 with human Red Blood Cells (Table 6) came to 216 µM.

As to `CCCCCCCCCC(=O)N(CCCNC(=O)[C@@H](N)CCCCN)CCCNC(=O)[C@@H](N)CCCCN.O=C(O)C(F)(F)F.O=C(O)C(F)(F)F` [Compound 9, N,N-bis-[{3-(^LLys)amino}propyl]decanamide bis(trifluoroacetate)], the MIC was 53 µM against S. aureus (MTCC 737), 60 µM in data set [1], 40 µM against E. coli (MTCC 443) and 58 µM in data set [2]. In the data set on MRSA (ATCC 33591), the “Minimum Inhibitory Concentration MRSA” value was 65 µM. In data set [3], the “Minimum Inhibitory Concentration K. pneumonie” value was 98 µM. This molecule also had an HC50 in the data set on human Red Blood Cells (Table 3) of over 1000. The hemolysis result with human Red Blood Cells is reported as “did not show any hemolytic”.

On to `CCCCCCCCCC(=O)N(CCCNC(=O)[C@@H](N)Cc1ccccc1)CCCNC(=O)[C@@H](N)Cc1ccccc1.O=C(O)C(F)(F)F.O=C(O)C(F)(F)F` [Compound 1, N,N-bis-[{3-(^LPhe)amino}propyl]decanamide bis(trifluoroacetate)], for which the MIC in the data set with S. aureus (MTCC 737) is on record as 19 µM; in data set [1] it was 36 µM; against E. coli (MTCC 443), 24 µM; in data set [2], 17 µM. Also, the “Minimum Inhibitory Concentration MRSA” value in the data set with MRSA (ATCC 33591) came to 25 µM. Also, the “Minimum Inhibitory Concentration K. pneumonie” value in data set [3] worked out at 70 µM. This molecule also had an HC50 with human Red Blood Cells (Table 3) of 232.

Turning to `CCCCCCCCCCCCCC(=O)N(CCCNC(=O)CN)CCCNC(=O)CN.O=C(O)C(F)(F)F.O=C(O)C(F)(F)F` [Compound 43, N,N-bis-[{3-(Gly)amido}propyl]tetradecanamide bis(trifluoroacetate)], the MIC was 12.5 µM against S. aureus (MTCC 737), 8.8 µM in data set [1], 16 µM in the data set with E. coli (MTCC 443) and 13 µM in data set [2]. In addition, in the data set with MRSA (ATCC 33591), the “Minimum Inhibitory Concentration MRSA” value came out at 10.8 µM. In data set [3], the “Minimum Inhibitory Concentration K. pneumonie” value was over 365 µM. The same molecule registered an HC50 with human Red Blood Cells (Table 6) of 157 µM.

Consider `CCCCCCCCCCCCCC(=O)N(CCCNC(=O)[C@@H](N)Cc1ccccc1)CCCNC(=O)[C@@H](N)Cc1ccccc1.O=C(O)C(F)(F)F.O=C(O)C(F)(F)F` [Compound 3, N,N-bis-[{3-(^LPhe)amino}propyl]tetradecanamide bis(trifluoroacetate)], for which the MIC worked out at 7 µM against S. aureus (MTCC 737), 5.2 µM in data set [1], 16 µM against E. coli (MTCC 443) and 2.8 µM in data set [2]. The “Minimum Inhibitory Concentration MRSA” value in the data set with MRSA (ATCC 33591) came out at 4.8 µM. For the same molecule, the “Minimum Inhibitory Concentration K. pneumonie” value in data set [3] was found to be 18 µM. The molecule further returned an HC50 in the data set on human Red Blood Cells (Table 3) of 144.

For the molecule `CCCCCCCCCCCCCCCCCC(=O)N(CCCNC(=O)[C@@H](N)Cc1ccccc1)CCCNC(=O)[C@@H](N)Cc1ccccc1.O=C(O)C(F)(F)F.O=C(O)C(F)(F)F` [Compound 5, N,N-bis-[{3-(^LPhe)amino}propyl]octadecanamide bis(trifluoroacetate)], the MIC turned out to be 12 µM against S. aureus (MTCC 737), 11 µM in data set [1], 270 µM in the data set with E. coli (MTCC 443) and 3.2 µM in data set [2]. Further, the “Minimum Inhibitory Concentration MRSA” value with MRSA (ATCC 33591) is 5.6 µM. In addition, the “Minimum Inhibitory Concentration K. pneumonie” value in data set [3] stood at 95 µM. The same molecule displayed an HC50 in the data set on human Red Blood Cells (Table 3) of 71.

Turning to `CCCCCCCCCCCC(=O)N(CCCNC(=O)[C@@H](N)CCCCN)CCCNC(=O)[C@@H](N)CCCCN.O=C(O)C(F)(F)F.O=C(O)C(F)(F)F` [Compound 10, N,N-bis-[{3-(^LLys)amino}propyl]dodecanamide bis(trifluoroacetate)], the MIC in the data set with S. aureus (MTCC 737) worked out at 37 µM; in data set [1] it was 32 µM; against E. coli (MTCC 443), 14 µM; in data set [2], 30 µM. Besides, in the data set on MRSA (ATCC 33591), the “Minimum Inhibitory Concentration MRSA” value came out at 45 µM. For the same molecule, the “Minimum Inhibitory Concentration K. pneumonie” value in data set [3] was 40 µM. Also, the HC50 in the data set on human Red Blood Cells (Table 3) was over 1000. Besides, the hemolysis entry in the data set with human Red Blood Cells was “did not show any hemolytic”.

Take `CCCCCCCCCCCC(=O)N(CCCNC(=O)[C@@H](N)CC(C)C)CCCNC(=O)[C@@H](N)CC(C)C.O=C(O)C(F)(F)F.O=C(O)C(F)(F)F` [Compound 54, N,N-bis-[{3-(^LLeu)amido}propyl]dodecanamide bis(trifluoroacetate)]: the MIC in the data set on S. aureus (MTCC 737) came to 5.8 µM; in data set [1] it was 8.6 µM; with E. coli (MTCC 443) it was 8.8 µM; in data set [2], 5 µM. Moreover, the “Minimum Inhibitory Concentration MRSA” value with MRSA (ATCC 33591) amounted to 8.9 µM. In addition, the “Minimum Inhibitory Concentration K. pneumonie” value in data set [3] turned out to be 18 µM. The HC50 in the data set on human Red Blood Cells (Table 6) was determined as 305 µM.
